From BindingDB's records for doi:10.1021/jm00105a061 (Zambeletti Research Laboratories, 1991)
Where a name gives a salt, the structure may show the parent alone.

What was measured:
[1] = Compound was evaluated for its binding affinity against Opioid receptor delta 1 subtype in guinea pig brain (minus cerebellum) using [3H]DADLE as radioligand.
[2] = Compound was evaluated for its binding affinity against opioid receptor delta subtype in guinea pig brain (minus cerebellum) using [3H]-DADLE as radioligand.

**Q.** Which Ki [1] does the source give for O=C(Cc1ccc(Cl)c(Cl)c1)N1CCCCC1CN1CCCC1 (stereo not drawn) here?
**A.** The Ki was over 10 µM.

**Q.** With O=C(Cc1ccc(O)cc1)N1CCCCC1CN1CCCC1 (stereo not drawn) as the molecule, how does the Ki [2] read?
**A.** Its Ki is over 10 µM.

**Q.** Which Ki [2] does the source give for CN1CCCC1C1CCCCN1C(=O)Cc1ccc(Cl)c(Cl)c1 (stereo not drawn) [(threo)2-(3,4-Dichloro-phenyl)-1-[2-(1-methyl-pyrrolidin-2-yl)-piperidin-1-yl]-ethanone(HCl)] here?
**A.** Its Ki is over 10 µM.
